Data taken from EPA's ToxValDB 9.5 (doi:10.2903/j.efsa.2009.258r).

How the values were obtained:
Apis mellifera = details: acute; oral; unspecified; mortality
Bibionidae = details: chronic/long-term; duration: 28 days; reproduction
Canidae = details: chronic; duration: 1 years; oral; Dog Other; clinical chemistry
Daphnia magna = details: chronic/long-term; duration: 21 days; reproduction
Folsomia candida = details: chronic/long-term; duration: 28 days
Oryctolagus sp. = details: reproduction developmental; food consumption
Pimephales promelas = details: chronic/long-term; duration: 28 days; growth
Tagia sp. = details: acute; duration: 14 days; mortality
Aphidius rhopalosiphi = test: LR50; higher = less toxic; details: not reported; mortality

Q: For `O=C(Cc1ccccc1)N/C(=N\OCC1CC1)c1c(C(F)(F)F)ccc(F)c1F` [Cyflufenamid], which LD50 (Apis mellifera) is on record?
A: Its LD50 is > 100 µg/piece.

Q: What about the NOEC (Bibionidae) of the same compound?
A: Its NOEC is 1 mg/L.

Q: What about the NOAEL (Canidae) of the same compound?
A: Its NOAEL is 4.1 mg/kg-day.

Q: What about the LC50 (Colinus virginianus; acute, oral, diet, mortality) of the same compound?
A: Its LC50 is > 743 mg/kg-day.

Q: What about the LD50 (Colinus virginianus; acute, oral, mortality) of the same compound?
A: Its LD50 is > 2000 mg/kg-day.

Q: And the NOEC (Colinus virginianus; reproduction developmental)?
A: Its NOEC is 98 mg/kg-day.

Q: What about the NOEC (Daphnia magna) of the same compound?
A: Its NOEC is 0.0406 mg/L.

Q: And the NOEC (Folsomia candida)?
A: The NOEC was > 0.0178 mg/kg.

Q: What about the NOAEL (Oryctolagus sp.) of the same compound?
A: Its NOAEL is 5 mg/kg-day.

Q: And the NOEC (Pimephales promelas)?
A: The NOEC was 0.024 mg/L.

Q: And the LD50 (Rattus norvegicus; acute, oral, mortality)?
A: Its LD50 is > 5000 mg/kg-day.

Q: And the NOAEL (Rattus norvegicus; chronic, duration: 2 years, F, histopathology: nonneoplastic)?
A: The NOAEL was 4.4 mg/kg-day.

Q: And the NOAEL (Rattus norvegicus; chronic, duration: 2 years, M, histopathology: nonneoplastic)?
A: Its NOAEL is 4.4 mg/kg-day.

Q: And the NOEC (Rattus norvegicus; reproduction developmental, mortality)?
A: Its NOEC is 800 mg/kg-day.

Q: And the NOAEL (Rattus norvegicus; reproduction developmental, reproduction)?
A: The NOAEL was 57 mg/kg-day.

Q: And the LC50 (Tagia sp.)?
A: The LC50 was > 500 mg/kg.

Q: What about the LR50 (Aphidius rhopalosiphi) of the same compound?
A: The LR50 was 50 g/ha.
